The test has as its system Saccharomyces cerevisiae. Description: DNA damaging activity against Sc-7 yeast assessed as drug level required to produce 12 mm zone of inhibition. It counts as functional.

As to `O=c1oc2c(O)c(Oc3ccc(O)c(O)c3O)cc3c(=O)oc4c(O)c(O)cc1c4c23` [ESCHWEILENOL A], the IC12 is 1000 µg/mL. For the compound `C[C@@H]1O[C@@H](Oc2cc3c(=O)oc4c(O)c(O)cc5c(=O)oc(c2O)c3c45)[C@H](O)[C@H](O)[C@H]1O` [ESCHWEILENOL C], the IC12 was 2000 µg/mL.

The values above are taken from ChEMBL document CHEMBL1150920, “Three new ellagic acid derivatives from the bark of Eschweilera coriacea from the Suriname rainforest” (1998).
